US5547870A, “Oxalate decarboxylate” (Zeneca Limited, priority 1994, dated 1996)
Counter-ions that a name gives are not always drawn.

Key:
[1] = target: T1, Collybia velutipes oxalate decarboxylase, purified native enzyme, peak A (eluting at pH 3.3 on chromatofocusing) (Flammulina velutipes, UniProt Q9UVK4); assay: Oxalate decarboxylase assay: liberation of 14CO2 from [14C]-oxalic acid; Lineweaver-Burk plots; format: biochemical, Collybia velutipes (strain S. A.T.C.C 13547)
T1 construct: chromatofocusing peak A (pH 3.3); about 55 kDa when deglycosylated
T1 sequence (Q9UVK4 21-447): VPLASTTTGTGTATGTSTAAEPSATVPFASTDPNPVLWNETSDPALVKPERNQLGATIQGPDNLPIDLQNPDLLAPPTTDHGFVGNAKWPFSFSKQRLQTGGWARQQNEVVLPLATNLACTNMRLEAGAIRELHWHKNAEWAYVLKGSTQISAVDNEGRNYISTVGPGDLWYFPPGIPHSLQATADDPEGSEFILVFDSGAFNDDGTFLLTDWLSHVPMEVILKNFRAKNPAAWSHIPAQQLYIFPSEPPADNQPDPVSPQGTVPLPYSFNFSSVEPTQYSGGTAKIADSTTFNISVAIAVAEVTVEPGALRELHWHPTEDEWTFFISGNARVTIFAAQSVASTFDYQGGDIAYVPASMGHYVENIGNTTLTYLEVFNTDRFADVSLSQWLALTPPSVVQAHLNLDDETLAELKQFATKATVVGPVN
Description: (§1) The oxalate decarboxylase activity was also determined by measuring the liberation of ^14 CO2 from [^14 C]-oxalic acid (Amersham, 4.1 mCi/mmol). The enzyme assay was carried out in small glass vails which contained 1 ml of the following reaction mixture: 0.2M potassium citrate, pH 3.0, 0.005M potassium oxalate, pH 3.0, 5.6 nmoles (0.0227 μCi) of (^14 C)-oxalic acid and 0.2 ml of enzyme solution. The tubes were preincubated for 5 min before the addition of enzyme. The tubes were sealed with rubber-stoppers and incubated at 37° C. for 30 min in a shaking water bath. The reaction was terminated by injection of 0.2 ml of 50% v/v trichloroacetic acid through the rubber caps and the tubes were shaken for additional 60 min to trap all the ^14 CO2 evolved in the 0.2 ml methylbenzethonium hydroxide(Sigma) placed in a plastic vial inside the glass tube. The plastic wells were withdrawn and the contents transferred to 5 ml of toluene based scintillation fluid and radioactivity determined in a liquid scintillation counter. Blanks tubes were set up in which the 0.2 ml of 50% TCA was added before the enzyme or the enzyme was omitted. In kinetic experiments, the values were corrected for the radioactivity obtained from the boiled denatured enzyme.
(§2) One unit was defined as the amount of enzyme releasing 1 μmole of ^14 CO2 per min at 37° C. under standard assay conditions. The overall assay efficiency was usually between 60-70%. Protein was determined by Lowry microassay method (Peterson, Anal. Biochem. 83:346 (1977)). Vmax and Km were determined by Lineweaver-Burk plot (Lineweaver and Burk, J. Am. Chem. Soc. 56:658-666 (1934)).

[2] = substrate: O=C(O)C(=O)O; assay: as above; format: biochemical, Collybia velutipes (strain S. A.T.C.C 13547); settings: other: peak A enzyme, Lineweaver-Burk plot, 0.2M potassium citrate pH 3.0, 37° C.
Description: as §1, with “The reaction was terminated by injection of 0.2 ml of 50% v/v trichloroacetic acid through the rubber caps and the tubes were shaken for additional 60 min to trap all the ^14 CO2 evolved in the 0.2 ml methylbenzethonium hydroxide(Sigma) placed in a plastic vial inside the glass tube.” left out, “Blanks tubes were set up in which the 0.2 ml of 50% TCA was added before the enzyme or the enzyme was omitted.” left out
as §2, with “The overall assay efficiency was usually between 60-70%.” left out

## O=C(O)CI [iodoacetate]
[1]; read-out: activity retained in the presence of sulfhydryl group reagent
  activity at 50000 µM: 95%

## O=S(=O)(O)c1cc[c]([Hg][Cl])cc1 [p-chloromercuribenzenesulfonic acid]
[1]; 50 mM reagent
  activity retained in the presence of sulfhydryl group reagent: 95%

## O=P(O)(O)O [phosphate ions, phosphate]
[1]; competitive inhibition, 90 mM PO4^2- added to the reaction, read-out: Ki (phosphate ions)
  Ki: 9 mM

## O=C(O)C(=O)O [potassium oxalate]
[1]; peak A enzyme, potassium oxalate as substrate, Lineweaver-Burk plot, pH 3.0, 37° C.
  Vmax: 166 µmol/min/mg

B1: Collybia velutipes oxalate decarboxylase, purified native enzyme, peak A (eluting at pH 3.3 on chromatofocusing) (Flammulina velutipes) (protein)
chain: T1 sequence (Q9UVK4 21-447)
notes: chromatofocusing peak A (pH 3.3); about 55 kDa when deglycosylated
[2]
  Km: 4.5 mM
  Vmax: 166 µmol/min/mg
